Data reported in patent US20130252811A1, “NOVEL HERBICIDE” (priority 2009, published 2013).

Key:
[1] = system: Leptochloa chinensis (LEFCH); test: Flooded Leptochloa chinensis, visual herbicidal damage (Biological Example 1, Test 125); assay type: in vivo; conditions: 14 DAA
Experimental: (§1) Rice seeds, variety IR-64 (an indica type of rice), were sown in seed trays. After 7 days the resulting plants were transplanted as 3 groups of 2 plants, into pots containing a standard sandy loam soil saturated with water replicating swampy conditions. These were grown on for a further 9 days in a glasshouse bay (30/20° C. day/night; 18/6 hours light/dark; 75% humidity). Leptochloa chinensis (LEFCH) and Echinochloa crus-galli (ECHCG) were sown as 2 separate groups of approx 10-20 seeds into pots 13 days prior to application of the test substances, in the same glasshouse conditions as the rice. Therefore, each pot of weeds contained a group of LEFCH and a separate group of ECHCG. All pots of rice and all pots of weeds were flooded to 2-3 cm water depth the day prior to application of the test substances. Growth stages at time of application were as follows: Rice: from 2 leaves on the main stem up to tillering; ECHCG: from 2 leaves on the main stem up to tillering; LEFCH: 2-3 leaves.
(§2) Test solutions were prepared by mixing the appropriate aliquots of the test substances in deionised water to give the desired treatment concentration. Most of the test substances were used as formulated products. Specifically, compound A-4 was applied as the EC050 formulation disclosed in Formulation Example 1 herein (EC=emulsifiable concentrate). Compound A-7 was applied as the EC050 Formulation disclosed in Formulation Example 2 herein. Compound A-9 was applied as the EC050 Formulation disclosed in Formulation Example 3 herein. Pyroxasulfone (a comparator co-herbicide) was applied as the SC050 formulation disclosed in Reference Formulation Example 7 herein (SC=Suspension concentrate). Imazosulfuron (a comparator co-herbicide) was applied as a GR0.25 formulation (GR=granule).
(§3) The test substances which were pure active ingredient (e.g. propyrisulfuron & fenoxasulfone) (labelled as ‘Technical’ in the following results table), were prepared by dissolving in 10.56% Emulsogen EL™ (castor oil ethoxylate, CAS Registry number 61791-12-6), 42.22% N-methylpyrrolidone and 42.22% dipropylene glycol mono-ethyl ether to give a stock solution containing 5% of the test substance and 95% of (Emulsogen EL™, N-methylpyrrolidone and dipropylene glycol mono-ethyl ether).
(§4) Application of the test substances was made by pipetting the required amount of the test solution or the test formulation gently into the flood water of the appropriate pot.
(§5) The test plants were then grown on in the same glasshouse conditions, and watered twice daily keeping the flood water at a depth of 2-3 cm.
(§6) A visual assessment of the % herbicidal damage was made 7 & 14 days after application (DAA), and the results are presented herein as % visual herbicidal damage where 0=no damage to plants and 100=total kill.

[2] = system: Echinochloa crus-galli (ECHCG); test: Flooded Echinochloa crus-galli, visual herbicidal damage (Biological Example 1, Test 125); assay type: in vivo; conditions: 14 DAA
Experimental: as §1, §2, §3, §4, §5, §6

Rice IR-64 = test: Flooded transplanted rice, visual herbicidal damage (Biological Example 1, Test 125); assay type: in vivo, variety IR-64 (indica); conditions: 14 DAA, co-herbicide alone 10 g/ha
Experimental: as §1
Test solutions were prepared by mixing the appropriate aliquots of the test substances in deionised water to give the desired treatment concentration. Most of the test substances were used as formulated products. Specifically, compound A-4 was applied as the EC050 formulation disclosed in Formulation Example 1 herein (EC=emulsifiable concentrate). […]

[3] = compound of formula (I) 60 g/ha, no co-herbicide, 0=no damage, 100=total kill
[4] = compound of formula (I) 90 g/ha, no co-herbicide
[5] = compound of formula (I) 120 g/ha, no co-herbicide

For `CCc1ccc(-c2ccc(Cl)cc2F)cc1C1C(=O)C(C)(C)OC(C)(C)C1=O` [compound A-4], the “% damage to LEFCH” value [1, 3] was 0%, the “% damage to LEFCH” value [1, 4] was 0% and the “% damage to LEFCH” value [1, 5] was 20%. For the same compound, the “% damage to ECHCG” value [2, 3] was 55%, the “% damage to ECHCG” value [2, 4] was 85% and the “% damage to ECHCG” value [2, 5] was 90%.

With `CCc1ccc(-c2ccc(Cl)cc2Cl)cc1C1C(=O)C(C)(C)OC(C)(C)C1=O` [compound A-7] the “% damage to LEFCH” value [1, 3] was 0%, the “% damage to LEFCH” value [1, 4] was 5% and the “% damage to LEFCH” value [1, 5] was 5%. For the same compound, the “% damage to ECHCG” value [2, 3] was 35%, the “% damage to ECHCG” value [2, 4] was 55% and the “% damage to ECHCG” value [2, 5] was 65%.

`CCc1ccc(-c2ccc(Cl)cc2Cl)cc1C1=C(OC(=O)OC)C(C)(C)OC(C)(C)C1=O` [compound A-9] was tested, and the “% damage to LEFCH” value [1, 3] was 80%, the “% damage to LEFCH” value [1, 4] was 80% and the “% damage to LEFCH” value [1, 5] was 90%. For the same compound, the “herbicidal activity against LEFCH” value ([1]; compound alone (EC formulation) at 60, 90 or 120 g/ha) was 80-90%, the “% damage to ECHCG” value [2, 3] was 15% and the “% damage to ECHCG” value [2, 4] was 40%. For the same compound, the “% damage to ECHCG” value [2, 5] was 70%.

With `CCOc1cc(Cl)c(CS(=O)(=O)C2=NOC(C)(C)C2)cc1Cl` [fenoxasulfone, reference compound] the “% damage to LEFCH” value ([1]; co-herbicide alone 200 g/ha) was 70% and the “% damage to ECHCG” value ([2]; co-herbicide alone 200 g/ha) was 65%.

In the case of `COc1cc(OC)nc(NC(=O)NS(=O)(=O)c2c(Cl)nc3ccccn23)n1` [imazosulfuron, reference compound], the “% damage to LEFCH” value ([1]; co-herbicide alone 80 g/ha) was 0% and the “% damage to ECHCG” value ([2]; co-herbicide alone 80 g/ha) was 50%.

With `CCCc1ccc2nc(Cl)c(S(=O)(=O)NC(=O)Nc3nc(OC)cc(OC)n3)n2n1` [propyrisulfuron, reference compound] the “% damage to LEFCH” value ([1]; co-herbicide alone 80 g/ha) was 0% and the “% damage to ECHCG” value ([2]; co-herbicide alone 80 g/ha) was 80%.

For `Cn1nc(C(F)(F)F)c(CS(=O)(=O)C2=NOC(C)(C)C2)c1OC(F)F` [pyroxasulfone, reference compound], the “% damage to LEFCH” value ([1]; co-herbicide alone 10 g/ha) was 70%, the “% damage to ECHCG” value ([2]; co-herbicide alone 10 g/ha) was 60% and the “% damage to Rice IR-64” value (Rice IR-64) was 45%.
